In patent publication US6632932B1, “Trisazo compound” (Orient Chemical Industries, Ltd., priority 2001, dated 2003):

Columns and labels:
[1] = Evaluation of light resistance of ink jet print (xenon fade meter); type: physicochemical; conditions: amount of energy required for OD value (about 1.0) to decrease to 70%; ink with 6.0% by weight dye, pH 9.0-9.5 (ammonia), printed on PM Photo Paper; xenon 36 W/m^2 (300 to 400 nm), 24° C., 55% humidity
Excerpt: Preparation of Samples for Test:
An ink, the pH of which was adjusted between 9.0 and 9.5 with ammonia, prepared using the composition shown above was set into an ink jet printer (EM-900C manufactured by Seiko Epson Corp.). A piece of paper specially designed for ink jet (PM Photo Paper (Model: KA420PSK) manufactured by Seiko Epson Corp.) was printed with the ink, and it was used as a sample to be tested.
Light irradiation: The sample to be tested was set to a holder. Light irradiation with a xenon fade meter was carried out under the following condition:
Method for evaluation: The sample is taken out after each irradiation of an energy of 3000 kJ/m^2, and a part with an optical density (OD value) of about 1.0 is measured with a Macbeth density meter. The total amount of light irradiated at the time when the OD value has become 70% the original value is calculated.
Criterion for evaluation: The amount of energy required for the OD value to decrease to 70%.

[2] = Solubility in water; type: physicochemical; conditions: under an ammoniacal alkaline condition
[3] = Mutagenicity test (Ames test)

Nc1c(N=Nc2ccc3cc(S(=O)(=O)O)c(N=Nc4ccccc4C(=O)O)c(O)c3c2)cc(S(=O)(=O)O)c2cc(S(=O)(=O)O)c(N=Nc3cc(C(=O)O)ccc3C(=O)O)c(O)c12 [Trisazo compound (8)]
Evaluation of light resistance [1]: ⊚ (Not less than 70,000 kJ/m^2)

COc1ccc(N=Nc2c(S(=O)(=O)O)cc3c(S(=O)(=O)O)cc(N=Nc4ccc5cc(S(=O)(=O)O)c(N=Nc6cc(Cl)ccc6C(=O)O)c(O)c5c4)c(N)c3c2O)c(S(=O)(=O)O)c1 [Trisazo compound (6)]
Evaluation of light resistance [1]: ◯

Nc1c(N=Nc2ccccc2C(=O)O)cc(S(=O)(=O)O)c2cc(S(=O)(=O)O)c(/N=N\c3ccc4cc(S(=O)(=O)O)c(N=Nc5ccccc5C(=O)O)c(O)c4c3)c(O)c12 [Trisazo compound (14)]
Evaluation of light resistance [1]: ⊚ (Not less than 70,000 kJ/m^2)

Cc1cc(-c2ccc(N=Nc3c(S(=O)(=O)O)cc4cc(S(=O)(=O)O)c(N=Nc5ccccc5)c(O)c4c3N)c(C)c2)ccc1N=Nc1ccc(N)cc1N [C. I. Direct Black 154, reference compound]
Evaluation of light resistance [1]: ×

Nc1c(N=Nc2ccc3cc(S(=O)(=O)O)c(N=Nc4cccc(C(=O)O)c4)c(O)c3c2)cc(S(=O)(=O)O)c2cc(S(=O)(=O)O)c(N=Nc3ccccc3C(=O)O)c(O)c12 [Trisazo compound (11)]
Evaluation of light resistance [1]: ◯

Nc1cc(O)ccc1N=Nc1ccc(Nc2ccc(N=Nc3c(S(=O)(=O)O)cc4cc(S(=O)(=O)O)c(N=Nc5ccccc5)c(O)c4c3N)cc2S(=O)(=O)O)cc1 [C. I. Direct Black 168, reference compound]
Evaluation of light resistance [1]: Δ (Not less than 10,000 kJ/m^2 and less than 40,000 kJ/m^2)

Nc1c(N=Nc2ccc3c(O)c(N=Nc4ccccc4C(=O)O)c(S(=O)(=O)O)cc3c2)cc(S(=O)(=O)O)c2cc(S(=O)(=O)O)c(N=Nc3ccccc3C(=O)O)c(O)c12 [Trisazo compound (2)]
Evaluation of light resistance [1]: ⊚ (Not less than 70,000 kJ/m^2)

CCOc1ccc(N=Nc2c(S(=O)(=O)O)cc3ccc(N=Nc4cc(S(=O)(=O)O)c5cc(S(=O)(=O)O)c(N=Nc6ccccc6C(=O)O)c(O)c5c4N)cc3c2O)cc1 [Trisazo compound (5)]
Evaluation of light resistance [1]: ⊚ (Not less than 70,000 kJ/m^2)

Nc1c(N=Nc2ccc3cc(S(=O)(=O)O)c(N=Nc4ccccc4C(=O)O)c(O)c3c2)cc(S(=O)(=O)O)c2cc(S(=O)(=O)O)c(N=Nc3ccccc3C(=O)O)c(O)c12 [Trisazo compound (1)]
Evaluation of light resistance [1]: ⊚ (Not less than 70,000 kJ/m^2)
solubility in water [2]: 14%
mutagenicity test (Ames test), ratio [3]: 1.27 times
result of mutagenicity test (Ames test) [3]: negative
